US6586425B2, “Cytoskeletal active agents for glaucoma therapy” (Wisconsin Alumni Research Foundation, priority 1996, dated 2003)
Values joined by “and” are separate entries in the source; they are usually repeats but may differ in a detail not shown here. Equal entries are not always repeated. Where two headings read alike, the source gives them in different places.

Tests used:
living monkey eyes [1] = test: Intraocular pressure by Goldmann applanation tonometry; format: in vivo, cynomolgus monkeys (Macaca fascicularis); details: for time to IOP reduction after administration: living monkeys, topical
Method: The intraocular pressure (IOP) was determined with a “minified” Goldmann applanation tonometer (Kaufman and Davis, Arch. Ophthalmol., 98:542-546[1980]), using “Half and Half®” creamer solution (Borden) as the tear film indicator (Croft et al., in Lakshminarayanan (ed.), Basic and Clinical Applications of Vision Science, Dordtecht, Kluwer, [1997], pp. 213-216), with the monkey lying prone in a head holder and the eyes positioned 4 to 8 cm above the heart. All monkeys were examined by slit-lamp before the first IOP measurement in each protocol. For each eye, two or three IOP measurements were averaged as a baseline.
After baseline IOP was measured, 21 or 42 μg LAT-A or 4 μg LAT-B were administered to the central cornea of supine monkeys in one eye and the vehicle to the opposite eye. Blinking was prevented with lid speculums during and for 5 min. after drug administration (taking care to avoid touching the globe), to maximize drug penetration into the AC and minimize systemic absorption. Following drug administration, the speculums were gently removed and the monkeys were kept in the supine position for another 15 min to further facilitate penetration of drug/vehicle solution into the AC. For LAT-A, IOP was then measured every hr for 7 to 9 hr beginning 1, 6, or 15 hr after the 21 gg dose, or beginning 1 or 6 hr after the 42 μg dose, and again at 24 hr. Each protocol included two groups of monkeys. Group one (6 monkeys) underwent IOP measurement from 1-9 hr and again at 24 hr after the drug; group two (6 monkeys) were measured from 6-13 hr for both doses and again from 15 hr-21 hr on a separate occasion for the 21 μg dose. For both doses, one monkey in group one was used again in group two; therefore its two readings measured at baseline or the period 6-9 hr after the drug on the two different occasions was averaged for data analysis. Thus, “n” for baseline and the period 6-9 hr post-drug is 11 rather than 12. During intervals between the post-drug reading at 9 hr and that at 24 hr for group one or between the drug administration and the first post-drug reading at 6 hr for group two, the animals were returned to the Animal Care Unit for recovery. For LAT-B, IOP was measured every hr for 6 hr beginning 1 hr after the 4 μg dose, and again at 24 hr. The animals were returned to the Animal Care Unit for recovery between the measurements at 6 hr and 24 hr. Anterior segments were examined by slit-lamp at 3, 6, 10 or 24 hr after LAT-A, or at 1, 3, 6 or 24 hr after LAT-B.

[2] = test system: bovine aortic endothelial cells; test: Actin filaments and C-C adhesions in cultured endothelial cells; format: cell-based
[3] = test system: ciliary muscle-disinserted monkey eyes; test: Outflow facility in ciliary muscle-disinserted eyes; format: in vivo, cynomolgus and rhesus monkeys
living monkey eyes [4] = test: Blood-aqueous barrier permeability to systemic fluorescein; format: in vivo, cynomolgus monkeys (Macaca fascicularis); details: 42 μg LAT-A topical
Method: Topical LAT-A (42 μg) was given to one eye and vehicle to the opposite eye as described above, 1 hr prior to intravenous injection of fluorescein Na in the saphenous vein (10 mg/kg in 500-600 μl) followed by a 4 ml saline flush. The concentration of fluorescein ([fluorescein]) in the cornea and AC was determined by fluorophotometry 15, 30, 45, 60, 90, 120, 180 and 240 min after fluorescein injection.

cornea = test: Corneal thickness by ultrasonic pachymetry; format: in vivo, cynomolgus monkeys (Macaca fascicularis)
Method: Corneal thickness was measured using a DGH-1000 ultrasonic pachymeter (DGH Technology). All eyes were examined by biomicroscopy prior to baseline measurements. Monkeys were placed supine in head holders. The central cornea was measured once and the peripheral cornea was measured four times midway between the center and the limbus on the vertical and horizontal axes. For each point in each eye, two baseline thickness measurements were averaged, and 4.0 μg LAT-B or 25% DMSO was administered to opposite eyes in the LAT-B protocol, or 25% DMSO or Bárány's administered to opposite eyes in the DMSO control protocol. The eyelids were held open manually during and for 5 min. after drug or vehicle administration. Corneal thickness was measured every 30-min. for 6 hr and again at 24 hr.

living monkey eye [5] = format: in vivo, cynomolgus monkeys (Macaca fascicularis); details: for (LAT-B/BL)/(Veh/BL) / Facility LAT-B/Vehicle / Facility, LAT-B eye: 2 hr wait
living monkey eye [6] = details: living monkeys; cited from earlier work
[7] = LAT-B 0.8 μg topical, 0-30 min, n=5
[8] = LAT-B 0.8 μg topical, 30-60 min, n=5
[9] = LAT-B 0.8 μg topical, 60-90 min, n=5
[10] = LAT-B 4.0 μg topical, 0-30 min, n=5
[11] = LAT-B 4.0 μg topical, 30-60 min, n=5
[12] = LAT-B 4.0 μg topical, 60-90 min, n=5

C/C1=C/C(=O)O[C@@H]2C[C@@H](CC[C@H](C)/C=C\C=C\CC1)O[C@@](O)([C@@H]1CSC(=O)N1)C2 [LAT-A]
period of lowered IOP after drug administration (living monkey eyes [1]; 21 μg LAT-A topical): 5 to 10 h | maximal IOP decrease below baseline (living monkey eyes [1]; 21 μg LAT-A topical, at 8 hr, n=11): 3.48±1.29 mmHg | period of lowered IOP after drug administration (living monkey eyes [1]; 42 μg LAT-A topical): 6 to 13 h | maximal IOP reduction below baseline (living monkey eyes [1]; 42 μg LAT-A topical, at 9 hr, n=11): 4.60±1.61 mmHg | time to IOP reduction after administration (living monkey eyes [1]): 6 h | effects on actin filaments and C-C adhesions ([2]; concentrations greater than 0.5 μM, 1 hour of exposure): unequivocal effects | effects on actin filaments and C-C adhesions ([2]; lower concentrations): more subtle slower onset effects | facility increase, control (non-disinserted) eyes ([3]; Lat-A 5.0 μM): 328±35% | Facility PRx, CM Dis eye ([3]; Lat-A 5.0 μM OU, n=9): 0.65 ± 0.23 μl/min/mmHg | Facility PRx, CM Dis/Cont ([3]; Lat-A 5.0 μM OU, n=9): 0.43 ± 0.15 | Facility PRx, Cont (non-disinserted, drug-treated) eye ([3]; Lat-A 5.0 μM OU, n=9): 1.51 ± 0.30 μl/min/mmHg | PRx/BL, CM Dis eye ([3]; Lat-A 5.0 μM OU, n=9): 4.53 ± 1.29 | PRx/BL, CM Dis/Cont ([3]; Lat-A 5.0 μM OU, n=9): 1.06 ± 0.27 | PRx/BL, Cont (non-disinserted, drug-treated) eye ([3]; Lat-A 5.0 μM OU, n=9): 4.28 ± 0.35 | facility increase, ciliary muscle-disinserted eyes ([3]; Lat-A 5.0 μM, n=9): 353±129% | [fluorescein]cornea, LAT-A-treated vs vehicle-treated eyes (living monkey eyes [4]; 15 min after i.v. fluorescein (1.25 hr after LAT-A)): ~10 times | [fluorescein]cornea, LAT-A-treated vs vehicle-treated eyes (living monkey eyes [4]; 240 min after i.v. fluorescein): ~1.5 times | [Fluorescein]AC higher in LAT-A eyes than in vehicle-treated eyes (living monkey eyes [4]; 240 min after i.v. fluorescein, n=4): 24±3%

C/C1=C/C(=O)O[C@@H]2C[C@@H](CC[C@H](C)/C=C\CC1)O[C@@](O)([C@@H]1CSC(=O)N1)C2 [LAT-B]
central corneal thickness increase vs contralateral control eyes (maximum) (cornea; 4.0 μg LAT-B topical, 3.5 hr, n=8): ~47 μm and 47±17 μm | central and peripheral corneal thickness (cornea; 4.0 μg LAT-B topical, 24 hr): returned to baseline | central cornea thicker compared to normal monkey cornea (cornea; LAT-B, hour 3.5 (maximal change)): ~10% | maximal IOP reduction, adjusted for baseline and contralateral control eyes (living monkey eyes [1]; 4 μg LAT-B topical, 6 hr, n=8): 3.1±1.2 mmHg | IOP (living monkey eyes [1]; 4 μg LAT-B topical, at 6 hr (from 17 mmHg)): 13.5 mmHg | IOP (living monkey eyes [1]; 4 μg LAT-B topical, within 1 hr (from 17 mmHg)): 15 mmHg | time to IOP reduction after administration (living monkey eyes [1]): ≤ 1 h | initial post-drug facility increase over final baseline value (living monkey eye [5]; 2 hr after LAT-B 4.0 μg topical, n=5): 173±73% | PRxf (final post-drug) facility, LAT-B eye (living monkey eye [5]; LAT-B 0.8 μg Top, n=5): 1.54 ± 0.33 μl min^−1 mmHg^−1 | PRxf facility, LAT-B/Veh (living monkey eye [5]; LAT-B 0.8 μg Top, n=5): 2.82 ± 1.22 | PRxf/BLf, LAT-B eye (living monkey eye [5]; LAT-B 0.8 μg Top, n=5): 3.78 ± 0.70 | PRxf/BLf, LAT-B/Veh (living monkey eye [5]; LAT-B 0.8 μg Top, n=5): 2.12 ± 0.64 | PRxf/PRxi, LAT-B eye (living monkey eye [5]; LAT-B 0.8 μg Top, n=5): 3.41 ± 0.73 | PRxf/PRxi, LAT-B/Veh (living monkey eye [5]; LAT-B 0.8 μg Top, n=5): 1.50 ± 0.28 | PRxi (first post-drug) facility, LAT-B eye (living monkey eye [5]; LAT-B 0.8 μg Top, n=5): 0.47 ± 0.08 μl min^−1 mmHg^−1 | PRxi facility, LAT-B/Veh (living monkey eye [5]; LAT-B 0.8 μg Top, n=5): 1.65 ± 0.38 | PRxi/BLf, LAT-B eye (living monkey eye [5]; LAT-B 0.8 μg Top, n=5): 1.16 ± 0.11 | PRxi/BLf, LAT-B/Veh (living monkey eye [5]; LAT-B 0.8 μg Top, n=5): 1.36 ± 0.16 | (LAT-B/BL)/(Veh/BL) (living monkey eye [5]; [7]): 1.84 | Facility LAT-B/Vehicle (living monkey eye [5]; [7]): 2.30 | Facility, LAT-B eye (living monkey eye [5]; [7]): 0.80 μl min^−1 mmHg^−1 | (LAT-B/BL)/(Veh/BL) (living monkey eye [5]; [8]): 2.59 | Facility LAT-B/Vehicle (living monkey eye [5]; [8]): 3.37 | Facility, LAT-B eye (living monkey eye [5]; [8]): 1.35 μl min^−1 mmHg^−1 | (LAT-B/BL)/(Veh/BL) (living monkey eye [5]; [9]): 2.37 | Facility LAT-B/Vehicle (living monkey eye [5]; [9]): 3.14 | Facility, LAT-B eye (living monkey eye [5]; [9]): 1.50 μl min^−1 mmHg^−1 | facility increase, averaged over 90 min (living monkey eye [5]; LAT-B 0.8 μg topical, n=5, p=NS): 123±67% | PRxf (final post-drug) facility, LAT-B eye (living monkey eye [5]; LAT-B 4.0 μg Top, n=5): 2.03 ± 0.31 μl min^−1 mmHg^−1 | PRxf facility, LAT-B/Veh (living monkey eye [5]; LAT-B 4.0 μg Top, n=5): 3.92 ± 0.58^∥ | PRxf/BLf, LAT-B eye (living monkey eye [5]; LAT-B 4.0 μg Top, n=5): 6.19 ± 0.48 | PRxf/BLf, LAT-B/Veh (living monkey eye [5]; LAT-B 4.0 μg Top, n=5): 3.69 ± 0.55^∥ | PRxf/PRxi, LAT-B eye (living monkey eye [5]; LAT-B 4.0 μg Top, n=5): 3.16 ± 1.08 | PRxf/PRxi, LAT-B/Veh (living monkey eye [5]; LAT-B 4.0 μg Top, n=5): 1.80 ± 0.53 | PRxi (first post-drug) facility, LAT-B eye (living monkey eye [5]; LAT-B 4.0 μg Top, n=5): 0.98 ± 0.27 μl min^−1 mmHg^−1 | PRxi facility, LAT-B/Veh (living monkey eye [5]; LAT-B 4.0 μg Top, n=5): 3.19 ± 1.16 | PRxi/BLf, LAT-B eye (living monkey eye [5]; LAT-B 4.0 μg Top, n=5): 3.03 ± 0.94 | PRxi/BLf, LAT-B/Veh (living monkey eye [5]; LAT-B 4.0 μg Top, n=5): 2.73 ± 0.73 | (LAT-B/BL)/(Veh/BL) (living monkey eye [5]; [10]): 3.68 | Facility LAT-B/Vehicle (living monkey eye [5]; [10]): 4.49 | Facility, LAT-B eye (living monkey eye [5]; [10]): 1.64 μl min^−1 mmHg^−1 | (LAT-B/BL)/(Veh/BL) (living monkey eye [5]; [11]): 4.03 | Facility LAT-B/Vehicle (living monkey eye [5]; [11]): 4.74 | Facility, LAT-B eye (living monkey eye [5]; [11]): 2.19 μl min^−1 mmHg^−1 | (LAT-B/BL)/(Veh/BL) (living monkey eye [5]; [12]): 3.68 | Facility LAT-B/Vehicle (living monkey eye [5]; [12]): 4.22 | Facility, LAT-B eye (living monkey eye [5]; [12]): 2.11 μl min^−1 mmHg^−1 | facility increase, averaged over 90 min (living monkey eye [5]; LAT-B 4.0 μg topical, n=5): 272±45% | potency relative to LAT-A (outflow facility) (living monkey eye [6]): 10 times
